Data reported in ChEMBL document CHEMBL1138028, “Synthesis and HIV-1 integrase inhibitory activity of dimeric and tetrameric analogs of indolicidin” (Bioorg Med Chem Lett, 2004).

Legend:
[1] = biological target: T1, Human immunodeficiency virus type 1 integrase (Human immunodeficiency virus 1, UniProt Q7ZJM1); experiment: Concentration required for inhibition of HIV-1 integrase mediated 3'-end processing
[2] = biological target: T1, Human immunodeficiency virus type 1 integrase; experiment: Concentration required for inhibition of HIV-1 integrase mediated strand transfer

T1 sequence (Q7ZJM1 whole entry): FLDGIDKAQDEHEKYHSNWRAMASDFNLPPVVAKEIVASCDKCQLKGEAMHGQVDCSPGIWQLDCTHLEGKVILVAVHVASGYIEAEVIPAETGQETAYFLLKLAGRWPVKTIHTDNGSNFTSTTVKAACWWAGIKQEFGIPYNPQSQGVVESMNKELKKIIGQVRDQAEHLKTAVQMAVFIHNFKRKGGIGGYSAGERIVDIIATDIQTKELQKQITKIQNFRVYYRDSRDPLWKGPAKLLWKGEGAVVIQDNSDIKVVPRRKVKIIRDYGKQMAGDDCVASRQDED

With H-ILPWGWPWWPWPP-NH2 as the molecule, how does the IC50 [1] read?
The IC50 was over 333 µM.

And the IC50 [2]?
The IC50 was over 333 µM.

Which results are given for `CC[C@H](C)[C@H](N)C(=O)N[C@@H](CC(C)C)C(=O)N1CCC[C@H]1C(=O)N[C@@H](Cc1c[nH]c2ccccc12)C(=O)N[C@@H](CCCCN)C(=O)N[C@@H](Cc1c[nH]c2ccccc12)C(=O)N1CCC[C@H]1C(=O)N[C@@H](Cc1c[nH]c2ccccc12)C(=O)N[C@@H](Cc1c[nH]c2ccccc12)C(=O)N1CCC[C@H]1C(=O)N[C@@H](Cc1c[nH]c2ccccc12)C(=O)N[C@@H](CCCN=C(N)N)C(=O)N[C@@H](CCCN=C(N)N)C(N)=O` [Indolicidin]?
IC50 [1]: 60 µM; IC50 [2]: 57 µM

`CC[C@H](C)[C@@H](N)C(=O)N[C@H](CC(C)C)C(=O)N1CCC[C@@H]1C(=O)N[C@H](Cc1c[nH]c2ccccc12)C(=O)N[C@H](CCCCN)C(=O)N[C@H](Cc1c[nH]c2ccccc12)C(=O)N1CCC[C@@H]1C(=O)N[C@H](Cc1c[nH]c2ccccc12)C(=O)N[C@H](Cc1c[nH]c2ccccc12)C(=O)N1CCC[C@@H]1C(=O)N[C@H](Cc1c[nH]c2ccccc12)C(=O)N1CCC[C@@H]1C(=O)N1CCC[C@@H]1C(=O)NCCCCC(NC(=O)[C@H]1CCCN1C(=O)[C@H]1CCCN1C(=O)[C@@H](Cc1c[nH]c2ccccc12)NC(=O)[C@H]1CCCN1C(=O)[C@@H](Cc1c[nH]c2ccccc12)NC(=O)[C@@H](Cc1c[nH]c2ccccc12)NC(=O)[C@H]1CCCN1C(=O)[C@@H](Cc1c[nH]c2ccccc12)NC(=O)[C@@H](CCCCN)NC(=O)[C@@H](Cc1c[nH]c2ccccc12)NC(=O)[C@H]1CCCN1C(=O)[C@@H](CC(C)C)NC(=O)[C@H](N)[C@@H](C)CC)C(N)=O` (stereo not given in full) was tested. Which IC50 [1] did it give?
Its IC50 is 2.3 µM.

And the IC50 [2]?
Its IC50 is 2.3 µM.

H-ILPWKWPWWPWPP-NH2 was tested. Which IC50 [1] did it give?
Its IC50 is 16 µM.

And the IC50 [2]?
Its IC50 is 13 µM.

With `CC[C@H](C)[C@H](N)C(=O)N[C@@H](CC(C)C)C(=O)N1CCC[C@H]1C(=O)N[C@@H](Cc1c[nH]c2ccccc12)C(=O)N[C@@H](CCCCN)C(=O)N[C@@H](Cc1c[nH]c2ccccc12)C(=O)N1CCC[C@H]1C(=O)N[C@@H](Cc1c[nH]c2ccccc12)C(=O)N[C@@H](Cc1c[nH]c2ccccc12)C(=O)N1CCC[C@H]1C(=O)N[C@@H](Cc1c[nH]c2ccccc12)C(=O)N1CCC[C@H]1C(=O)N1CCC[C@H]1C(=O)NCCCCC(NC(=O)[C@@H]1CCCN1C(=O)[C@@H]1CCCN1C(=O)[C@H](Cc1c[nH]c2ccccc12)NC(=O)[C@@H]1CCCN1C(=O)[C@H](Cc1c[nH]c2ccccc12)NC(=O)[C@H](Cc1c[nH]c2ccccc12)NC(=O)[C@@H]1CCCN1C(=O)[C@H](Cc1c[nH]c2ccccc12)NC(=O)[C@H](CCCCN)NC(=O)[C@H](Cc1c[nH]c2ccccc12)NC(=O)[C@@H]1CCCN1C(=O)[C@H](CC(C)C)NC(=O)[C@@H](N)[C@@H](C)CC)C(N)=O` (stereo not given in full) as the molecule, how does the IC50 [1] read?
The IC50 was 2.8 µM.

What about the IC50 [2] of the same molecule?
Its IC50 is 4.9 µM.

Which results are given for `CC[C@H](C)[C@H](N)C(=O)N[C@@H](CC(C)C)C(=O)N1CCC[C@H]1C(=O)N[C@@H](Cc1c[nH]c2ccccc12)C(=O)NCC(=O)N[C@@H](Cc1c[nH]c2ccccc12)C(=O)N1CCC[C@H]1C(=O)N[C@@H](Cc1c[nH]c2ccccc12)C(=O)N[C@@H](Cc1c[nH]c2ccccc12)C(=O)N1CCC[C@H]1C(=O)N[C@@H](Cc1c[nH]c2ccccc12)C(=O)N[C@@H](CCCN=C(N)N)C(=O)N[C@@H](CCCN=C(N)N)C(N)=O`?
IC50 [1]: 49 µM; IC50 [2]: 19 µM

Which IC50 [1] does the source give for H-ILAWKWAWWAWPP-NH2 here?
The IC50 was 54 µM.

What about the IC50 [2] of the same molecule?
The IC50 was 41 µM.

For H-LPWKWPWWPWPP-NH2, which IC50 [1] is on record?
Its IC50 is 185 µM.

What about the IC50 [2] of the same molecule?
The IC50 was 215 µM.

What does the source list for `CC[C@H](C)[C@H](N)C(=O)N[C@@H](CC(C)C)C(=O)N1CCC[C@H]1C(=O)N[C@@H](Cc1c[nH]c2ccccc12)C(=O)N[C@@H](CCCCN)C(=O)N[C@@H](Cc1c[nH]c2ccccc12)C(=O)N1CCC[C@H]1C(=O)N[C@@H](Cc1c[nH]c2ccccc12)C(=O)N[C@@H](Cc1c[nH]c2ccccc12)C(=O)N1CCC[C@H]1C(=O)N[C@@H](Cc1c[nH]c2ccccc12)C(=O)N1CCC[C@H]1C(=O)N1CCC[C@H]1C(=O)NCCCCC(NC(=O)[C@@H]1CCCN1C(=O)[C@@H]1CCCN1C(=O)[C@H](Cc1c[nH]c2ccccc12)NC(=O)[C@@H]1CCCN1C(=O)[C@H](Cc1c[nH]c2ccccc12)NC(=O)[C@H](Cc1c[nH]c2ccccc12)NC(=O)[C@@H]1CCCN1C(=O)[C@H](Cc1c[nH]c2ccccc12)NC(=O)[C@H](CCCCN)NC(=O)[C@H](Cc1c[nH]c2ccccc12)NC(=O)[C@@H]1CCCN1C(=O)[C@H](CC(C)C)NC(=O)[C@@H](N)[C@@H](C)CC)C(=O)NCCCCC(NC(=O)C(CCCCNC(=O)[C@@H]1CCCN1C(=O)[C@@H]1CCCN1C(=O)[C@H](Cc1c[nH]c2ccccc12)NC(=O)[C@@H]1CCCN1C(=O)[C@H](Cc1c[nH]c2ccccc12)NC(=O)[C@H](Cc1c[nH]c2ccccc12)NC(=O)[C@@H]1CCCN1C(=O)[C@H](Cc1c[nH]c2ccccc12)NC(=O)[C@H](CCCCN)NC(=O)[C@H](Cc1c[nH]c2ccccc12)NC(=O)[C@@H]1CCCN1C(=O)[C@H](CC(C)C)NC(=O)[C@H](N)[C@@H](C)CC)NC(=O)[C@@H]1CCCN1C(=O)[C@@H]1CCCN1C(=O)[C@H](Cc1c[nH]c2ccccc12)NC(=O)[C@@H]1CCCN1C(=O)[C@H](Cc1c[nH]c2ccccc12)NC(=O)[C@H](Cc1c[nH]c2ccccc12)NC(=O)[C@@H]1CCCN1C(=O)[C@H](Cc1c[nH]c2ccccc12)NC(=O)[C@H](CCCCN)NC(=O)[C@H](Cc1c[nH]c2ccccc12)NC(=O)[C@@H]1CCCN1C(=O)[C@H](CC(C)C)NC(=O)[C@@H](N)[C@@H](C)CC)C(N)=O` (stereo not given in full)?
IC50 [1]: 0.6 µM; IC50 [2]: 0.6 µM

Which results are given for H-ILPWKWPWWPWP-NH2?
IC50 [1]: 180 µM; IC50 [2]: 80 µM
